Source: patent US12421243B2, “Pharmaceutically effective compounds inhibiting selectively the myosin 2 isoforms” (PRINTNET KERESKEDELMI ÉS SZOLGÁLTATÓ KFT., priority 2018, dated 2025)

What was measured:
[1] = tested on: isolated rabbit skeletal muscle myosin (skeletal); assay: actomyosin steady state ATPase measurement, skeletal muscle myosin; type: biochemical; details: for % inhibition at 50 μM (or 100 μM if racemate) Skeletal: 50 μM (100 μM if racemate); for % inhibition at 50 μM (or 100 μM if racemate) Skeletal / % inhibition at 5 μM (or 10 μM if racemate) Skeletal: ATPase activity; for % inhibition at 5 μM (or 10 μM if racemate) Skeletal: 5 μM (10 μM if racemate); for IC50: concentration required for semi-maximal inhibition of ATPase; for % inhibition. complete Skeletal: maximum value of inhibition of ATPase activity
Source text: (§1) […]; (ii) the concentration required for semi-maximal inhibition.

[2] = biological target: T1, isolated porcine cardiac ventricular myocardium (cardiac) (Sus scrofa, UniProt P79293); assay: actomyosin steady state ATPase measurement, cardiac myosin; type: biochemical; details: for inhibition at 50 µM: read-out: % inhibition at 50 μM (or 100 μM if racemate) cardiac, 50 μM (100 μM if racemate); for inhibition at 50 µM / inhibition at 5 µM: ATPase activity; for IC50: concentration required for semi-maximal inhibition of ATPase; for % inhibition. complete cardiac: maximum value of inhibition of ATPase activity; for inhibition at 5 µM: read-out: % inhibition at 5 μM (or 10 μM if racemate) cardiac, 5 μM (10 μM if racemate)
T1 construct: isolated porcine cardiac ventricular myocardium (cardiac); from tissue; host or cells: porcine cardiac ventricle
Source text: as §1

[3] = biological target: recombinant human non-muscle myosin 2 NM2C (Homo sapiens, UniProt Q7Z406); assay: actomyosin steady state ATPase measurement, NM2C; type: biochemical; details: for inhibition at 50 µM: read-out: % inhibition at 50 μM (or 100 μM if racemate) NM2C, 50 μM (100 μM if racemate); for inhibition at 50 µM / inhibition at 5 µM: ATPase activity; for IC50: concentration required for semi-maximal inhibition of ATPase; for % inhibition. complete NM2C: maximum value of inhibition of ATPase activity; for inhibition at 5 µM: read-out: % inhibition at 5 μM (or 10 μM if racemate) NM2C, 5 μM (10 μM if racemate); for Inhibition (%) NM2C: maximum inhibition, compounds in IC50 range 1-5 μM
Source text: as §1

[4] = biological target: recombinant human non-muscle myosin 2 NM2B (Homo sapiens, UniProt P35580); assay: actomyosin steady state ATPase measurement, NM2B; type: biochemical; details: read-out: % inhibition at 50 μM (or 100 μM if racemate) NM2B; 50 μM (100 μM if racemate); ATPase activity
Source text: as §1

[5] = biological target: recombinant Dictyostelium miozin (Dictyostelium) (Dictyostelium discoideum, UniProt P08799); assay: actomyosin steady state ATPase measurement, Dictyostelium myosin; type: biochemical; details: for inhibition at 50 µM: read-out: % inhibition at 50 μM (or 100 μM if racemate) Dicty; for IC50: concentration required for semi-maximal inhibition of ATPase, read-out: IC50 (μM) Dicty; for Inhibition (%) Dicty: maximum inhibition, compounds in IC50 range 1-11 μM; for % inhibition. complete Dicty: maximum value of inhibition of ATPase activity; for inhibition at 5 µM: read-out: % inhibition at 5 μM (or 10 μM if racemate) Dicty
Source text: as §1

[6] = biological target: isolated smooth muscle myosin (UniProt P10587); type: biochemical, chamois; details: for % inhibition at 50 μM (or 100 μM if racemate) Smooth: 50 μM (100 μM if racemate); for % inhibition at 50 μM (or 100 μM if racemate) Smooth / % inhibition at 5 μM (or 10 μM if racemate) Smooth: ATPase activity; for % inhibition at 5 μM (or 10 μM if racemate) Smooth: 5 μM (10 μM if racemate); for % inhibition. complete Smooth: maximum value of inhibition of ATPase activity; for Inhibition (%) smooth: maximum inhibition, compounds in IC50 range 1-5 μM
[7] = biological target: recombinant human non-muscle myosin 2 NM2A (Homo sapiens, UniProt P35579); assay: actomyosin steady state ATPase measurement, NM2A; type: biochemical; details: for inhibition at 50 µM: read-out: % inhibition at 50 μM (or 100 μM if racemate) NM2A, 50 μM (100 μM if racemate); for inhibition at 50 µM / inhibition at 5 µM: ATPase activity; for inhibition at 5 µM: read-out: % inhibition at 5 μM (or 10 μM if racemate) NM2A, 5 μM (10 μM if racemate)
Source text: as §1

[8] = biological target: isolated smooth muscle myosin (UniProt P10587); type: biochemical, chamois; details: concentration required for semi-maximal inhibition of ATPase
Source text: (ii) the concentration required for semi-maximal inhibition.

T1 sequence (P79293 whole entry): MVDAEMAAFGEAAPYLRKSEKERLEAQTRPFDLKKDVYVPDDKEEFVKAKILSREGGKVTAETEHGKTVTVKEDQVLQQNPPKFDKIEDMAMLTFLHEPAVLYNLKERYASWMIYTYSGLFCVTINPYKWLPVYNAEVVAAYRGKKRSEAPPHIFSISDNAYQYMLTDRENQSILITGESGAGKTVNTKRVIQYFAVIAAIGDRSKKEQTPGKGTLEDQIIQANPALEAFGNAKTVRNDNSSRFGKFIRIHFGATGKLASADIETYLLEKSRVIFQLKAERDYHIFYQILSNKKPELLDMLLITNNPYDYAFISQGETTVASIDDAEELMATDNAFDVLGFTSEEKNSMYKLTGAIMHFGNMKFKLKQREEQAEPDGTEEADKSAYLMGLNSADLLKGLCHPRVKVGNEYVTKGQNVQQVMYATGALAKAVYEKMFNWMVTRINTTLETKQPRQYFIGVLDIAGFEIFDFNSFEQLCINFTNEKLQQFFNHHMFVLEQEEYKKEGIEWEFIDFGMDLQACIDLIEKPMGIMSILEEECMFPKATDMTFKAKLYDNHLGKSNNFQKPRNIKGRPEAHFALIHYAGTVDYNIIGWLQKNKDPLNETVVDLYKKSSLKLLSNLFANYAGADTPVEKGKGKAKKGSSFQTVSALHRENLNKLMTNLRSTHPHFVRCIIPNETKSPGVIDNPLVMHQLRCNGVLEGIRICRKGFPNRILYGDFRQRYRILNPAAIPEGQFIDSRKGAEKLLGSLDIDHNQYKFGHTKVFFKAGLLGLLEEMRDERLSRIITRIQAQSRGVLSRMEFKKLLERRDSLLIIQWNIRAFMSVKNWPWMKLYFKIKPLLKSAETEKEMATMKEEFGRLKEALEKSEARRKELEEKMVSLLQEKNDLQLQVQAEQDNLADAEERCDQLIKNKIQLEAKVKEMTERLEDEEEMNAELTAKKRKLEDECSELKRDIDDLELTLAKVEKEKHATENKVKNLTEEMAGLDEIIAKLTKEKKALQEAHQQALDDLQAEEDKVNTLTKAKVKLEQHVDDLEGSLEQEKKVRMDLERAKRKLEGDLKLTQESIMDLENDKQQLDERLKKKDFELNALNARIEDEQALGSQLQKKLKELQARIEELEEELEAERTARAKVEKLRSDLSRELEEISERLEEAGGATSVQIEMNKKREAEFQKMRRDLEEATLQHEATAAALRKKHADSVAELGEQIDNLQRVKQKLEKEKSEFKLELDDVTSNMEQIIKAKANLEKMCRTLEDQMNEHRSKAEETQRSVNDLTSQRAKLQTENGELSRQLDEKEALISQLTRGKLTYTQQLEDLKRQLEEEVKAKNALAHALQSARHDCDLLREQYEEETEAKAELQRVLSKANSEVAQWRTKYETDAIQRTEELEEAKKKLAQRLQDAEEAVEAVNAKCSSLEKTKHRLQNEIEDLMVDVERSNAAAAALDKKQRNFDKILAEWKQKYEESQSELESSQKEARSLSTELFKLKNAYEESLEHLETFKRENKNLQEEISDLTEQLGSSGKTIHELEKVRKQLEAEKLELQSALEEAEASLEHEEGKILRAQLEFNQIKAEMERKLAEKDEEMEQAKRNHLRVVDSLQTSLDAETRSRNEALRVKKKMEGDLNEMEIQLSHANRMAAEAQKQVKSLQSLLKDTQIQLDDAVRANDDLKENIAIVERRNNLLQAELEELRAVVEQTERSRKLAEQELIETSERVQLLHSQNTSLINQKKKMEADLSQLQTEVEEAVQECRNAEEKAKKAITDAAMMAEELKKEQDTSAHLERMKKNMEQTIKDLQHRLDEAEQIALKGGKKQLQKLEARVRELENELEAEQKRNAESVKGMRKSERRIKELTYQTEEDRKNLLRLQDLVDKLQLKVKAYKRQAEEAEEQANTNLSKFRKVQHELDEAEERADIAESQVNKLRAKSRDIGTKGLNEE
Chain of isolated smooth muscle myosin (P10587 whole entry): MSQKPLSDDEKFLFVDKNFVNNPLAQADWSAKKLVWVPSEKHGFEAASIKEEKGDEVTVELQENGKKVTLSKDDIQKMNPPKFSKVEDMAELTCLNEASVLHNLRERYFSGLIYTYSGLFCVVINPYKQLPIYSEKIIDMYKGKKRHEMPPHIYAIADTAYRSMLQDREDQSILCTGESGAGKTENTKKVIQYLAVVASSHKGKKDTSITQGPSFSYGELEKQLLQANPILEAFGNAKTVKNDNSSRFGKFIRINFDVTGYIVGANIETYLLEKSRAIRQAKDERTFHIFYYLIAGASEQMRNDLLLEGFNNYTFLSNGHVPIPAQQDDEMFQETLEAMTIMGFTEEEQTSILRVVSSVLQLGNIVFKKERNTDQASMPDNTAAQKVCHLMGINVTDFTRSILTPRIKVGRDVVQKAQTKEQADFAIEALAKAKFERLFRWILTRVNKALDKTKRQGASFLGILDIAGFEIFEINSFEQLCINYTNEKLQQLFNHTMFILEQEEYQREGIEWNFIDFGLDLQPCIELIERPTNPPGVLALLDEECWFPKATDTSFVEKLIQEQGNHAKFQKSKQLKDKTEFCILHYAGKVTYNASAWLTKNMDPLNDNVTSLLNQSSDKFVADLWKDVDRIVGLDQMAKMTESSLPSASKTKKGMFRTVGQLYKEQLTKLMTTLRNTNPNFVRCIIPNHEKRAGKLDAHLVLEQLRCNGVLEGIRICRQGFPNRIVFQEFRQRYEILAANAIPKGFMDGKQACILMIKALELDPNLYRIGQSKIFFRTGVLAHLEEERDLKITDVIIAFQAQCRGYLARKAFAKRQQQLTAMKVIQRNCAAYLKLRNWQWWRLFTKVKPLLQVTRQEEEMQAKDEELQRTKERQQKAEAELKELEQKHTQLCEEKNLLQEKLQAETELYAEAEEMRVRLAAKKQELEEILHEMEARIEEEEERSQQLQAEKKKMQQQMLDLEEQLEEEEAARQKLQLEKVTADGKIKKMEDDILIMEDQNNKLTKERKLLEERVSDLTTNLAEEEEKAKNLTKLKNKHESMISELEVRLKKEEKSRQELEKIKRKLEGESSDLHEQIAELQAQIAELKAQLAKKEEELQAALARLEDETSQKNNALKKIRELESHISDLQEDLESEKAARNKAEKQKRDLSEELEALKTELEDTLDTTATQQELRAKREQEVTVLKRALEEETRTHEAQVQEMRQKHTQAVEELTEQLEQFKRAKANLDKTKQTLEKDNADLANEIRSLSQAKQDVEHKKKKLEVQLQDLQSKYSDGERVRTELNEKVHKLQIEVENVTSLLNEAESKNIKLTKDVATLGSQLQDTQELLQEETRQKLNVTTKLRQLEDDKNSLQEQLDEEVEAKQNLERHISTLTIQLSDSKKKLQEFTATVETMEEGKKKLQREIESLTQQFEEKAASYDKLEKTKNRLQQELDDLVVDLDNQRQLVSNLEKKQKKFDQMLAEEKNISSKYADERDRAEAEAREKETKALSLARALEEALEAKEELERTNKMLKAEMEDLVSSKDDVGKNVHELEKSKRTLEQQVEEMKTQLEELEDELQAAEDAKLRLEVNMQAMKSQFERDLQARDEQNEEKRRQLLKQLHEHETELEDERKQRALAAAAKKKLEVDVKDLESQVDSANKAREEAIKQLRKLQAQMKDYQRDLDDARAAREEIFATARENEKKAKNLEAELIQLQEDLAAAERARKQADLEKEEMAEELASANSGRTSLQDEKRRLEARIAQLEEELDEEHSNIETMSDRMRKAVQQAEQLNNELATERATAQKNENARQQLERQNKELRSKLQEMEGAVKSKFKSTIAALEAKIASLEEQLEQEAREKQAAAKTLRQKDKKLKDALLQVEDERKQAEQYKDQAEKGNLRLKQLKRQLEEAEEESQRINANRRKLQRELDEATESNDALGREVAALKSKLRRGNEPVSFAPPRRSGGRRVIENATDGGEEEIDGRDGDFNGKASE

| SMILES | % inhibition at 50 μM (or 100 μM if racemate) Skeletal [1] [%] | inhibition at 50 µM [2] [%] | inhibition at 50 µM [3] [%] | inhibition at 50 µM [5] [%] | % inhibition at 50 μM (or 100 μM if racemate) Smooth [6] [%] | IC50 [8] [µM] | % inhibition at 5 μM (or 10 μM if racemate) Skeletal [1] [%] | IC50 [1] [µM] | % inhibition. complete Skeletal [1] [%] | IC50 [2] [µM] | % inhibition. complete cardiac [2] [%] | inhibition at 5 µM [2] [%] | % inhibition at 5 μM (or 10 μM if racemate) Smooth [6] [%] | % inhibition. complete Smooth [6] [%] | IC50 [3] [µM] | % inhibition. complete NM2C [3] [%] | inhibition at 5 µM [3] [%] | IC50 [5] [µM] | % inhibition. complete Dicty [5] [%] | inhibition at 5 µM [5] [%] | also measured |
| --- | --- | --- | --- | --- | --- | --- | --- | --- | --- | --- | --- | --- | --- | --- | --- | --- | --- | --- | --- | --- | --- |
| O=C1c2ncccc2N=C2N(c3ccccc3)CCC12O (stereo not shown) [Compound 190, 8a-Hydroxy-6-phenyl-6H,7H,8H,8aH,9H-pyrrolo[2,3-b]1,5-naphthyridin-9-one] | 86 | 43 | 41 | 44 | 34 |  |  |  |  |  |  |  |  |  |  |  |  |  |  |  | inhibition at 50 µM [4]: 24%; inhibition at 50 µM [7]: 15% |
| Cc1nsc2c1C(=O)C1(O)CCN(c3ccccc3)C1=N2 (stereo not shown) [Compound 206, 12-phenyl-9-Hydroxy-6-methyl-4-thia-2,5,12-triazatricyclo[7.3.0.0^3,7]dodeca-1,3(7),5-trien-8-one] | 78 | 39 |  |  | 21 | 9 | 26 | 14 | 100 | 10 | 47 | 16 | 9 | 24 |  |  |  |  |  |  | inhibition at 5 µM [7]: 9% |
| Cc1cc2c(s1)N=C1N(c3cccs3)CC[C@@]1(O)C2=O [Compound 208, (9S)-9-Hydroxy-5-methyl-12-(thiophen-2-yl)-4-thia-2,12-diazatricyclo[7.3.0.0^3,7]dodeca-1,3(7),5-trien-8-one] | 93 |  | 65 | 89 | 60 | 7.8 | 87 | 0.36 | 95 |  |  |  | 26 | 66 | 1.7 | 69 | 54 | 3.6 | 95 | 55 | Inhibition (%) Dicty [5]: 95%; IC50 ([7]; concentration required for semi-maximal inhibition of ATPase): 7.2 µM; Inhibition (%) NM2A ([7]; maximum inhibition, compounds in IC50 range 5-10 μM): 89%; % inhibition. complete NM2A ([7]; maximum value of inhibition of ATPase activity): 89%; inhibition at 5 µM [7]: 37%; inhibition at 50 µM [7]: 78% |
| CC(=O)c1ccc(N2CCC3(O)C(=O)c4cc(C)sc4N=C23)cc1 (stereo not shown) [Compound 225, 12-(4-Acetylphenyl)-9-hydroxy-5-methyl-4-thia-2,12-diazatricyclo[7.3.0.0^3,7]dodeca-1,3(7),5-trien-8-one] | 95 | 96 | 74 | 97 | 96 | 2.2 | 93 | 0.17 | 96 | 2.4 | 100 | 68 | 68 | 100 | 2.8 | 78 | 47 | 4.1 | 100 | 64 | Inhibition (%) Dicty [5]: 100% |
| Cc1cc2c(s1)N=C1N(c3ccc(CC#N)cc3)CCC1(O)C2=O (stereo not shown) [Compound 226, 2-(4-{9-Hydroxy-5-methyl-8-oxo-4-thia-2,12-diazatricyclo[7.3.0.0^3,7]dodeca-1,3(7),5-trien-12-yl}phenyl)acetonitrile] | 92 | 83 | 90 | 83 | 79 | 0.5 | 91 | 0.17 | 93 | 0.73 | 85 | 72 | 72 | 80 | 1.5 | 92 | 69 | 5.5 | 92 | 43 | Inhibition (%) Dicty [5]: 92% |
| Cc1cc2c(s1)N=C1N(c3ccc(CO)cc3)CCC1(O)C2=O (stereo not shown) [Compound 227, 9-Hydroxy-12-[4-(hydroxymethyl)phenyl]-5-methyl-4-thia-2,12-diazatricyclo[7.3.0.0^3,7]dodeca-1,3(7),5-trien-8-one] | 96 | 89 | 80 | 96 | 92 | 4 | 82 | 0.83 | 97 | 0.76 | 90 | 77 | 54 | 99 | 2.8 | 84 | 52 | 5.1 | 100 | 47 | Inhibition (%) NM2C [3]: 84% |
| Cc1cc2c(s1)N=C1N(c3cccs3)CCC1(O)C2=O (stereo not shown) [Compound 229, 9-Hydroxy-5-methyl-12-(thiophen-2-yl)-4-thia-2,12-diazatricyclo[7.3.0.0^3,7]dodeca-1,3(7),5-trien-8-one] | 96 | 87 | 98 | 95 | 87 | 3.4 | 87 | 0.61 | 97 | 1.4 | 93 | 54 | 54 | 93 | 1.1 | 100 | 78 | 1.4 | 97 | 74 | Inhibition (%) smooth [6]: 93% |
| COc1ccc(N2CCC3(O)C(=O)c4cc(C)sc4N=C23)cn1 (stereo not shown) [Compound 230, 9-Hydroxy-12-(6-methoxypyridin-3-yl)-5-methyl-4-thia-2,12-diazatricyclo[7.3.0.0^3,7]dodeca-1,3(7),5-trien-8-one] | 92 | 93 | 89 | 90 | 96 | 3.6 | 85 | 0.43 | 93 | 1.9 | 96 | 68 | 56 | 100 | 2.3 | 93 | 61 | 8.1 | 100 | 36 | Inhibition (%) NM2C [3]: 93%; Inhibition (%) smooth [6]: 100% |
| Cc1ccc(N2CC[C@@]3(O)C(=O)c4ccsc4N=C23)cc1 [Compound 233, (9S)-9-Hydroxy-12-(4-methylphenyl)-4-thia-2,12-diazatricyclo[7.3.0.0^3,7]dodeca-1,3(7),5-trien-8-one] | 98 | 87 | 69 | 76 | 70 | 8.8 | 92 | 0.32 | 98 | 0.82 | 88 | 74 | 29 | 83 | 2.1 | 72 | 48 | 17 | 100 | 21 | Inhibition (%) NM2C [3]: 72% |
